We go through 9 molecules from patent US20260295053A1, “COMPOUNDS FOR DEGRADATION AND INHIBITION OF KRAS (G12D) PROTEIN” (Shenzhen Ionova Life Science Co., Ltd., priority 2023, published 2026).

For one assay, the system named is AsPC-1 cells. As to the kind of experiment: AsPC-1 cell proliferation assay (CellTiter Glo). It is filed as cell-based. To be noted: Homo sapiens, ASPC1, 144 h, 6 days. A digest of the protocol:
(§1)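 Degradation: 22,000 cells/well grown to ~90% confluency, 24 h compound, fixed/permeabilised, anti-KRAS G12D + β-actin antibodies, near-IR fluorescence, DC50. Proliferation: 3,500 cells/well overnight, 6 d compound, CellTiter Glo luminescence, IC50. Dosing […]–1.5 nM final, 1:3 steps.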

For the next assay, the target named is T1, KRAS (G12D) (Homo sapiens, UniProt P01116, G12D).
T1 construct: in-cell western with KRAS G12D antibody after 24 h
T1 sequence (P01116 1-188 isoform P01116-2 G12D): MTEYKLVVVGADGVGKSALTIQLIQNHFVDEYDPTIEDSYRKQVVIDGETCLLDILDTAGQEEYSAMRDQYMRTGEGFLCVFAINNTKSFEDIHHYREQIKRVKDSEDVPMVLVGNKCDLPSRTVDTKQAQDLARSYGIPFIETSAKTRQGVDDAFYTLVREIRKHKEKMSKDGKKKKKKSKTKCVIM
As to the kind of experiment: KRAS (G12D) cellular degradation assay in AsPC-1 cells. To be noted: 24 hours, antibody fluorescence (Odyssey CLX), DC50 half-maximal degradation concentration. It is filed as cell-based. The gist of the method: as §1

As for `CO[C@@H](C)COc1nc(N2C[C@@H]3C[C@H]2CN3)c2cc(C3CC3)c(-c3c(C)c(F)cc4[nH]ncc34)c(OCc3ccc(-c4cn([C@H](C(=O)N5C[C@H](O)C[C@H]5C(=O)N[C@H](C#Cc5cccc(Cl)c5F)CO)C(C)C)nn4)cc3)c2n1` [Example 78, (2S,4R)-1-((2S)-2-(4-(4-(((4-((1S,4S)-2,5-diazabicyclo[2.2.1]heptan-2-yl)-6-cyclopropyl-7-(6-fluoro-5-methyl-1H-indazol-4-yl)-2-((S)-2-methoxypropoxy)quinazolin-8-yl)oxy)methyl)phenyl)-1H-1,2,3-triazol-1-yl)-3-methylbutanoyl)-N—((R)-4-(3-chloro-2-fluorophenyl)-1-hydroxybut-3-yn-2-yl)-4-hydroxypyrrolidine-2-carboxamide], the concentration for half-maximal inhibition (IC50) in the assay on AsPC-1 cells was below 10 nM. The DC50 on KRAS (G12D) lay in the range of 10 to 100 nM.

`Cc1ncsc1-c1ccc([C@H](CO)NC(=O)[C@@H]2C[C@@H](O)CN2C(=O)[C@H](C(C)C)n2cc(-c3ccc(COc4c(-c5c(C)c(F)cc6[nH]ncc56)c(C5CC5)cc5c(N6C[C@@H]7C[C@H]6CN7)nc(OCC6(C(F)F)CC6)nc45)cc3)nn2)cc1` [Example 79, (2S,4R)-1-((2S)-2-(4-(4-(((4-((1S,4S)-2,5-diazabicyclo[2.2.1]heptan-2-yl)-6-cyclopropyl-2-((1-(difluoromethyl)cyclopropyl)methoxy)-7-(6-fluoro-5-methyl-1H-indazol-4-yl)quinazolin-8-yl)oxy)methyl)phenyl)-1H-1,2,3-triazol-1-yl)-3-methylbutanoyl)-4-hydroxy-N—((R)-2-hydroxy-1-(4-(4-methylthiazol-5-yl)phenyl)ethyl)pyrrolidine-2-carboxamide] had an IC50 in the assay with AsPC-1 cells below 10 nM. Besides, the DC50 on KRAS (G12D) was below 10 nM.

The molecule `CO[C@@H](C)COc1nc(N2C[C@@H]3C[C@H]2CN3)c2cc(C3CC3)c(-c3c(C)c(F)cc4[nH]ncc34)c(OCc3ccc(-c4cn([C@H](C(=O)N5C[C@H](O)C[C@H]5C(=O)N[C@H](C#Cc5cccc6scnc56)CO)C(C)C)nn4)cc3)c2n1` [Example 80] yielded an IC50 in the assay with AsPC-1 cells of 10 to 100 nM. This molecule also returned a DC50 at KRAS (G12D) of 10 to 100 nM.

Consider `CCn1nccc1C12CC(CNC(=O)[C@@H]3C[C@@H](O)CN3C(=O)[C@H](C(C)C)n3cc(-c4ccc(COc5c(-c6c(C)c(F)cc7[nH]ncc67)c(C6CC6)cc6c(N7C[C@@H]8C[C@H]7CN8)nc(OC[C@H](C)OC)nc56)cc4)nn3)(C1)C2` [Example 81, (2S,4R)-1-((2S)-2-(4-(4-(((4-((1S,4S)-2,5-diazabicyclo[2.2.1]heptan-2-yl)-6-cyclopropyl-7-(6-fluoro-5-methyl-1H-indazol-4-yl)-2-((S)-2-methoxypropoxy)quinazolin-8-yl)oxy)methyl)phenyl)-1H-1,2,3-triazol-1-yl)-3-methylbutanoyl)-N-((3-(1-ethyl-1H-pyrazol-5-yl)bicyclo[1.1.1]pentan-1-yl)methyl)-4-hydroxypyrrolidine-2-carboxamide], for which, in the assay on AsPC-1 cells, the IC50 fell in the range of 10 to 100 nM. In addition, on KRAS (G12D), the DC50 is 10 to 100 nM.

In the assay on AsPC-1 cells, `CO[C@@H](C)COc1nc(N2C[C@@H]3C[C@H]2CN3)c2cc(C3CC3)c(-c3c(C)c(F)cc4[nH]ncc34)c(OCc3ccc(-c4cn([C@H](C(=O)N5C[C@H](O)C[C@H]5C(=O)N[C@H](c5ccc(-c6scnc6C)cc5)[C@H](C)O)C(C)C)nn4)cc3)c2n1` [Example 82, (2S,4R)-1-((2S)-2-(4-(4-(((4-((1S,4S)-2,5-diazabicyclo[2.2.1]heptan-2-yl)-6-cyclopropyl-7-(6-fluoro-5-methyl-1H-indazol-4-yl)-2-((S)-2-methoxypropoxy)quinazolin-8-yl)oxy)methyl)phenyl)-1H-1,2,3-triazol-1-yl)-3-methylbutanoyl)-4-hydroxy-N-((1R,2S)-2-hydroxy-1-(4-(4-methylthiazol-5-yl)phenyl)propyl)pyrrolidine-2-carboxamide] gave an IC50 below 10 nM. This molecule showed a half-maximal degradation concentration (DC50) at KRAS (G12D) below 10 nM.

On to `CCn1nccc1-c1ccc([C@H](CO)NC(=O)[C@@H]2C[C@@H](O)CN2C(=O)[C@H](C(C)C)n2cc(-c3ccc(COc4c(-c5c(C)c(F)cc6[nH]ncc56)c(C5CC5)cc5c(N6C[C@@H]7C[C@H]6CN7)nc(OC(COC)C(F)F)nc45)cc3)nn2)cc1` (stereo partly drawn) [Example 83, (2S,4R)-1-((2S)-2-(4-(4-(((4-((1S,4S)-2,5-diazabicyclo[2.2.1]heptan-2-yl)-6-cyclopropyl-2-((1,1-difluoro-3-methoxypropan-2-yl)oxy)-7-(6-fluoro-5-methyl-1H-indazol-4-yl)quinazolin-8-yl)oxy)methyl)phenyl)-1H-1,2,3-triazol-1-yl)-3-methylbutanoyl)-N—((R)-1-(4-(1-ethyl-1H-pyrazol-5-yl)phenyl)-2-hydroxyethyl)-4-hydroxypyrrolidine-2-carboxamide], for which the IC50 in the assay on AsPC-1 cells was below 10 nM. For the same molecule, on KRAS (G12D), the 50% degradation concentration (DC50) was below 10 nM.

As for `CCn1nccc1-c1ccc([C@@H](NC(=O)[C@@H]2C[C@@H](O)CN2C(=O)[C@H](C(C)C)n2cc(-c3ccc(COc4c(-c5c(C)c(F)cc6n[nH]cc56)c(C5CC5)cc5c(N6C[C@@H]7C[C@H]6CN7)nc(OC6CCOCC6)nc45)cc3)nn2)[C@H](C)O)c2c1CC2` [Example 84, (2S,4R)-1-((2S)-2-(4-(4-(((4-((1S,4S)-2,5-diazabicyclo[2.2.1]heptan-2-yl)-6-cyclopropyl-7-(6-fluoro-5-methyl-1H-indazol-4-yl)-2-((tetrahydro-2H-pyran-4-yl)oxy)quinazolin-8-yl)oxy)methyl)phenyl)-1H-1,2,3-triazol-1-yl)-3-methylbutanoyl)-N-((1R,2S)-1-(5-(1-ethyl-1H-pyrazol-5-yl)bicyclo[4.2.0]octa-1(6),2,4-trien-2-yl)-2-hydroxypropyl)-4-hydroxypyrrolidine-2-carboxamide], the 50% inhibitory concentration (IC50) in the assay with AsPC-1 cells is below 10 nM. At KRAS (G12D), this molecule came in with a DC50 below 10 nM.

`CCn1nccc1-c1ccc([C@@H](NC(=O)[C@@H]2C[C@@H](O)CN2C(=O)[C@H](C(C)C)n2cc(-c3ccc(COc4c(-c5c(C)c(F)cc6[nH]ncc56)c(C5CC5)cc5c(N6C[C@@H]7C[C@H]6CN7)nc(OC[C@H](C)OC)nc45)cc3)nn2)[C@H](C)O)c2c1CC2` [Example 85, (2S,4R)-1-((2S)-2-(4-(4-(((4-((1S,4S)-2,5-diazabicyclo[2.2.1]heptan-2-yl)-6-cyclopropyl-7-(6-fluoro-5-methyl-1H-indazol-4-yl)-2-((S)-2-methoxypropoxy)quinazolin-8-yl)oxy)methyl)phenyl)-1H-1,2,3-triazol-1-yl)-3-methylbutanoyl)-N-((1R,2S)-1-(5-(1-ethyl-1H-pyrazol-5-yl)bicyclo[4.2.0]octa-1(6),2,4-trien-2-yl)-2-hydroxypropyl)-4-hydroxypyrrolidine-2-carboxamide]: in the assay with AsPC-1 cells, the IC50 is below 10 nM. The same molecule came in with a DC50 at KRAS (G12D) below 10 nM.

Take `CCn1nccc1-c1ccc([C@H](CO)NC(=O)[C@@H]2C[C@@H](O)CN2C(=O)[C@H](C(C)C)n2cc(-c3ccc(COc4c(-c5c(C)c(F)cc6[nH]ncc56)c(C5CC5)cc5c(N6C[C@@H]7C[C@H]6CN7)nc(OC6CCC(OC)C6)nc45)cc3)nn2)cc1` (stereo partly drawn) [Example 86, (2S,4R)-1-((2S)-2-(4-(4-(((4-((1S,4S)-2,5-diazabicyclo[2.2.1]heptan-2-yl)-6-cyclopropyl-7-(6-fluoro-5-methyl-1H-indazol-4-yl)-2-((3-methoxycyclopentyl)oxy)quinazolin-8-yl)oxy)methyl)phenyl)-1H-1,2,3-triazol-1-yl)-3-methylbutanoyl)-N—((R)-1-(4-(1-ethyl-1H-pyrazol-5-yl)phenyl)-2-hydroxyethyl)-4-hydroxypyrrolidine-2-carboxamide]: the IC50 in the assay with AsPC-1 cells is below 10 nM. Besides, the DC50 at KRAS (G12D) is below 10 nM.
